Data: PubChem BioAssay (NCI)
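Growth conditions: 96-well plates. Treatment: test compound, 48 hours, 5 concentrations. Analysis: linear interpolation between bracketing concentrations; unreached endpoints set to highest concentration. Abbreviation: GI50, concentration required for 50% inhibition of growth. TGI marks complete inhibition of growth.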

Legend:
Experiment in all cases: NCI tumour cell line growth inhibition, 48 h
BT-549 breast = system: BT-549 breast
CAKI-1 renal = system: CAKI-1 renal
MALME-3M melanoma = system: MALME-3M melanoma
NCI-H522 lung = system: NCI-H522 lung
OVCAR-3 ovarian = system: OVCAR-3 ovarian
RPMI-8226 leukemia = system: RPMI-8226 leukemia
SNB-19 CNS = system: SNB-19 CNS
SW-620 colon = system: SW-620 colon
UACC-257 melanoma = system: UACC-257 melanoma
UO-31 renal = system: UO-31 renal

SMILES	TGI (BT-549 breast)	TGI (CAKI-1 renal)	TGI (MALME-3M melanoma)	TGI (NCI-H522 lung)	TGI (OVCAR-3 ovarian)	TGI (RPMI-8226 leukemia)	TGI (SNB-19 CNS)	TGI (SW-620 colon)	TGI (UACC-257 melanoma)	TGI (UO-31 renal)	GI50 (BT-549 breast)	GI50 (CAKI-1 renal)	GI50 (MALME-3M melanoma)	GI50 (OVCAR-3 ovarian)	GI50 (RPMI-8226 leukemia)	GI50 (SNB-19 CNS)	GI50 (SW-620 colon)	GI50 (UACC-257 melanoma)	GI50 (UO-31 renal)
CCOC(=O)c1c[nH]c(C(=O)OCC)c1-c1cccn1-c1ccccc1	> 100 µM	67.7 µM	56.4 µM	55.4 µM	37.4 µM	52.6 µM	> 100 µM	> 100 µM	> 100 µM	77.4 µM									
O=C1CCN2c3ccccc3[C@H]3Cc4cccc(c4[C@@H]2C3)CCO1	> 100 µM	> 100 µM	> 100 µM	> 100 µM	86 µM	> 100 µM	> 100 µM	> 100 µM	> 100 µM	76.4 µM									
CO/C(N)=C(\C#N)N=Cc1ccc2ccccc2c1	> 100 µM	> 100 µM	> 100 µM	> 100 µM	> 100 µM	> 100 µM		> 100 µM	91.3 µM	> 100 µM									
C=C1CC(C)(COc2ccc3c(C)c(Cl)c(=O)oc3c2)OC1=O (stereo not given)	2.81 µM	6.58 µM	7.63 µM	2.1 µM	16.9 µM	1.83 µM	26.7 µM	3.15 µM	3.48 µM	9.63 µM									
CCOC(=O)C(NC(=O)OCc1ccccc1)C(=O)O (stereo not given)	> 100 µM	> 100 µM	> 100 µM	> 100 µM	> 100 µM	> 100 µM	> 100 µM	> 100 µM	> 100 µM	> 100 µM									
O=C1NC2NC3NC(=O)NC3NC2N1 (stereo not given)	> 100 µM	> 100 µM	> 100 µM	> 100 µM	> 100 µM	> 100 µM	> 100 µM	> 100 µM	> 100 µM	> 100 µM									
CC1(C)CCN2C(=O)C34CCCC3CC21S4 (stereo not given)	> 100 µM	> 100 µM	> 100 µM	> 100 µM	> 100 µM	> 100 µM	> 100 µM	> 100 µM	> 100 µM	> 100 µM									
COc1ccc(C2c3cc4c(cc3OC(NNc3ccccc3)C2C)OCO4)cc1 (stereo not given)	76.1 µM	> 100 µM	52.9 µM	94.6 µM	39.8 µM	> 100 µM	> 100 µM	> 100 µM	86.3 µM	> 100 µM									
CCC(NC(C)c1ccccc1)C(=O)c1ccc(OCc2ccccc2)c(OCc2ccccc2)c1 (stereo not given)	> 100 µM	> 100 µM	> 100 µM	> 100 µM	> 100 µM	> 100 µM	> 100 µM	> 100 µM		> 100 µM									
CCc1n[nH]c(=O)n1CCCCCCCCn1c(CC)n[nH]c1=O	> 100 µM	> 100 µM	> 100 µM	> 100 µM	> 100 µM	> 100 µM	> 100 µM	> 100 µM	> 100 µM	> 100 µM									
CC1=NN(c2nc(N)nc(NS(=O)(=O)c3cc(C)c(Cl)cc3S)n2)C(C)(C)C1	> 10 µM	> 10 µM	> 10 µM	> 10 µM	> 10 µM	> 10 µM	> 10 µM	> 10 µM	> 10 µM	> 10 µM									
CSc1nc(=S)[nH]c2c1c(C)nn2-c1ccccc1	> 100 µM	40.3 µM	41.5 µM	65.4 µM	> 100 µM	47.7 µM	> 100 µM	> 100 µM	51.9 µM	69.8 µM									
Cc1cccc(C2ON=C(c3ccccc3)N2C23CC4CC(CC(C4)C2)C3)c1 (stereo not given)	> 10 µM	> 10 µM	> 10 µM	> 10 µM	> 10 µM	> 10 µM	> 10 µM	> 10 µM	> 10 µM										
CN(C)c1ccc(/C=C/C(=O)c2ccc(O)cc2)cc1	> 59 µM	> 100 µM	51 µM	8.58 µM	9.37 µM	22 µM	> 100 µM	> 100 µM	> 92.4 µM	> 100 µM									
O=[N+]([O-])c1ccc(SN=S=NSc2cccc(SN=S=NSc3ccc([N+](=O)[O-])cc3)c2)cc1	40.6 µM	41.1 µM	> 100 µM	34.3 µM	> 100 µM	> 100 µM	> 100 µM	60.3 µM	> 100 µM	70.2 µM									
CC(C)/C=C1\CCC(CN(C)C)C1=O (stereo not given)	7.83 µM	4.21 µM	2.29 µM	0.22 µM	7.97 µM	2.36 µM	21.6 µM	1.55 µM	10.8 µM	16.5 µM									

SMILES	TGI (BT-549 breast)	TGI (CAKI-1 renal)	TGI (MALME-3M melanoma)	TGI (NCI-H522 lung)	TGI (OVCAR-3 ovarian)	TGI (RPMI-8226 leukemia)	TGI (SNB-19 CNS)	TGI (SW-620 colon)	TGI (UACC-257 melanoma)	TGI (UO-31 renal)	GI50 (BT-549 breast)	GI50 (CAKI-1 renal)	GI50 (MALME-3M melanoma)	GI50 (OVCAR-3 ovarian)	GI50 (RPMI-8226 leukemia)	GI50 (SNB-19 CNS)	GI50 (SW-620 colon)	GI50 (UACC-257 melanoma)	GI50 (UO-31 renal)
O=C(CNc1ccccn1)Nn1cnc2ccc(S(=O)(=O)Nc3ccccn3)cc2c1=O	> 100 µM	> 100 µM	> 100 µM	> 100 µM	> 100 µM	> 100 µM	> 100 µM	> 100 µM	> 100 µM	> 100 µM									
O=C1Oc2ccccc2C1C/C(=N\Nc1ccccc1)c1ccccc1O (stereo not given)	> 100 µM	> 100 µM	> 100 µM	98 µM	> 100 µM	72.3 µM	> 100 µM	> 100 µM	90.5 µM	77.6 µM									
COc1ccc(C(O)/C(=N/N)c2nc3ccc(Cl)cc3[nH]c2=O)cc1 (stereo not given)	> 100 µM	> 100 µM	> 100 µM	> 100 µM	> 100 µM	> 100 µM	> 100 µM	> 100 µM	> 100 µM	> 100 µM									
COc1ccc(Nc2nc3ccccc3n3cccc23)cc1OC	49.3 µM	89.1 µM	32.9 µM	31.2 µM	42.8 µM	54.3 µM	> 100 µM	36.6 µM	29.4 µM	39.2 µM									
C[C@@H](CC(O)C(O)C(C)(C)O)C1CCC23CC12CCC1[C@@]2(C)CCC(O)C(C)(C)C2CC(OC2OC(CO)C(O)C(O)C2O)[C@]13C (stereo not given in full)	> 10 µM	> 10 µM	> 10 µM	> 10 µM	> 10 µM	> 10 µM	> 10 µM	> 10 µM	> 10 µM	> 10 µM									
CS(=O)(=O)N1CC(CCl)c2ccc(NO)cc21 (stereo not given)	25.1 µM	27.6 µM	37.7 µM	16.3 µM	40.7 µM	16 µM	> 86.4 µM	> 50.4 µM	40.6 µM	16.5 µM									
Cn1c(=O)c2[nH]c(N=O)nc2n(C)c1=O	> 100 µM	> 100 µM	> 100 µM	> 100 µM	> 100 µM	> 100 µM		> 100 µM	> 100 µM	> 100 µM									
CCOC1OC(CO)C(O)CC1n1ccc(=O)[nH]c1=O (stereo not given)	> 100 µM	> 100 µM	> 100 µM	> 100 µM	> 100 µM	> 100 µM	> 100 µM	> 100 µM	> 100 µM	> 100 µM									
O=C(NCCN1CCCCC1)c1ccc(Br)cc1	> 100 µM	> 100 µM	> 100 µM	> 100 µM	> 100 µM	> 100 µM	> 100 µM	> 100 µM	> 100 µM	> 100 µM									
O=c1[nH]/c(=C/c2ccc3c(c2)OCO3)c(=O)[nH]/c1=C/c1ccc2c(c1)OCO2	> 10 µM	> 10 µM	> 10 µM	> 10 µM	> 10 µM	> 10 µM	> 10 µM	> 10 µM	> 10 µM	> 10 µM									
O=C1N/C(=N\N=C\c2ccccc2)C(c2ccccc2)O1 (stereo not given)	> 100 µM	> 100 µM	> 100 µM	> 100 µM	> 100 µM	> 100 µM	> 100 µM	> 100 µM	> 100 µM	33.5 µM									
CCN(CC)CCCNc1c2c(Cl)cc(Cl)cc2nc2nc(=O)[nH]c(C)c12	> 100 µM	> 100 µM	> 100 µM	46.9 µM	> 100 µM	> 10 µM	44.3 µM	37.9 µM	> 100 µM	> 100 µM									
NS(=O)(=O)c1ccc(NC(=O)N/N=C/c2ccccc2O)cc1	> 100 µM	> 100 µM	> 100 µM	> 100 µM	> 100 µM	> 100 µM	> 100 µM	> 100 µM	> 100 µM	> 100 µM									
COC1(CC[C@@H](C)COC2OC(CO)C(O)C(O)C2O)O[C@H]2C[C@H]3[C@@H]4CC=C5C[C@@H](OC6OC(CO)C(OC7OC(C)C(O)C(O)C7O)C(O)C6OC6OC(C)C(O)C(O)C6O)CC[C@]5(C)[C@H]4CC[C@]3(C)[C@H]2[C@@H]1C (stereo not given in full)	6.81 µM	2.61 µM	5.09 µM	4.23 µM	6.64 µM	13.7 µM	6.54 µM	2.21 µM	8.38 µM	5.2 µM	2580 nM	1250 nM	1960 nM	2040 nM	3.83 µM	2460 nM	795 nM	2560 nM	1690 nM
CCCCOCCOCCOC1=CC(=O)c2c(O)ccc(O)c2C1=O	3.16 µM	3.76 µM	1.49 µM	2.99 µM	3 µM	> 10 µM	3.19 µM	3.06 µM	2.97 µM	2.93 µM									
CC(=O)CCCCn1c(=O)c2c(nc(Br)n2C)n(C)c1=O	> 100 µM	3.87 µM	> 100 µM	24.9 µM	> 100 µM	> 100 µM	> 100 µM	> 100 µM	> 100 µM	> 100 µM									
